17 compounds from patent US20250179057A1, “MEK IMMUNE ONCOLOGY INHIBITORS AND THERAPEUTIC USES THEREOF” (Immuneering Corporation, priority 2022, published 2025) can be followed below.

The nature of data set [1]: PAMPA (pH 7.4). The class given is in vitro ADME. Particulars: PAMPA; pH = 7.4 (Table 14). A general note: The PAMPA barrier holds no transporters, so it reflects passive diffusion.
Data set [2] has as its system phospho-ERK in A549 (KRAS G12S) cells. As to the kind of experiment: Cell-based pERK (pERK:tERK) in A549 cells. Particulars: for activity at 0.01 µM: Homo sapiens, A549, 2 h, read-out: A549-pERK (10 nM, 2 h); for A549-pERK (10 nM, 2 h): phospho- to total protein ratio normalized to DMSO control (Table 9). The procedure, abridged: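 A549 cells in 6-well plates were treated with compound at a predetermined concentration for 2 hours at 37 °C. Lysates were then normalised by Bradford protein assay to 1 mg/mL for pERK. Phospho-ERK and total ERK were detected by Western blot with IRDye secondary antibodies and quantified by LI-COR Odyssey imaging.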

Data set [3] has as its system phospho-MEK in A549 cells. As to the kind of experiment: Cell-based pMEK (pMEK:tMEK, CRAF bypass) in A549 cells. Particulars: 2 h; for A549-pMEK 100 nM, 2 h: normalized to DMSO control (Table 13). The method, then:
Materials and Methods: A549 or A375 cells were seeded in 6-well plates at an appropriate seeding density on day 0. On day 2 or 3, after checking the health and confluency of cells, the media was aspirated and replaced with 1 mL media containing a predetermined concentration of compound and incubated for 2 hours. After 2 hours, the media was aspirated, and the cells washed 2 times with cold PBS. Cells were lysed on ice, with 50 uL 1×CST lysis buffer +1 mM PMSF for 5 minutes. After 5 minutes, cells were removed using a scraper and transferred to cold 1.5 mL tubes, and centrifuged for 10 min, 4° C., 14,000×g. Supernatant was gently removed and snap frozen in liquid nitrogen. Protein concentration of the lysate was determined using Bradford Reagent (analyzed using SpectraMax M2E) and diluted to 1 mg/mL or pERK or 1.5 mg/mL for pMEK analysis. […] All dilutions were in Milk-free antibody diluent.
(§1) A549 or […] cells were treated in duplicate for two hours with compounds at varying concentrations. After two hours, the cells were lysed, snap frozen, and stored at −80° C. After storage, the lysate was quantified with the Bradford assay. Before the lysates were prepared to run on the Jess, the lysates were diluted to 1 mg/mL for pERK analysis and 1.5 mg/mL pMEK analysis using quantitative Western blotting. ERK and MEK phosphorylation levels were estimated by taking the ratio of phospho-protein to total protein and normalizing to the DMSO control.
as §1

The nature of data set [4]: Kinetic solubility (PBS pH 7.4; 4 hr). The class given is physicochemical. Particulars: free base (Table 19), read-out: Kinetic Solubility. The method, then: The plates were shaken for 4 h at room temperature in an Eppendorf Thermomixer. After incubation, the plates were centrifuged for 20 minutes at 4680 rpm. From the supernatant, 150 μL was transferred to a new 96 well plate and 50 μL DMSO was added to ensure continued dissolution. Samples were measured on LC-UV at injection volumes of 1 and 8 μL. Peak areas were determined and compared to peak areas obtained using calibration curves of the test compounds in DMSO.

A short description of data set [5]: Mouse pharmacokinetics (oral cassette dosing), plasma. The class given is in vivo. Conditions: BALB/c immunocompetent mice, 5 mg/kg p.o. The method, then: Female mice (BALC/c) received a single dose (3 mice/treatment) of vehicle (10% 1N HCl:90% [20% […]) and at 0.5, 1, 2, 4, 8, 12 and 24-hour post dose humanely euthanized.
Blood was obtained through cardiac puncture into K+EDTA tubes, mixed by inversion and centrifuged to obtain the plasma. Blood will be kept on ice or at approximately 4° C. prior. Centrifugation will take place within 30 minutes of blood collection affording plasma samples. Plasma samples will be frozen as soon as possible after centrifugation and stored at −80° C. until analysis. All samples will be analysed by means of LC-MS/MS. Method development for bioanalysis will be performed by pharmacokinetics Department of Crown Bioscience (Taicang) Inc. using LC-MS/MS analysis (using Waters HSS T3 2.1×50 mm (1.8 um) LC column, and an API-4000 Electrospray MS unit). The results of a kinetic solubility (free base) study are represented in Table 19.

The target of data set [6] is CYP2C9 (Homo sapiens, UniProt P11712). As to the kind of experiment: CYP450 panel inhibition in human liver microsomes, 2C9 (diclofenac). From the text:
The quenched samples were stored refrigerated.
In general terms: Liver microsomes are vesicles of endoplasmic reticulum, rich in cytochrome P450 enzymes.

The mark [7] stands for this setting: PBS buffer, pH 7.4, aqueous buffer, kinetic from dmso stock.
Setting [8] is: female, mouse, read-out: AUC0-t.

Converted amounts (≈) assume the structure as drawn. Read-outs that look alike come from different tables or passages of the source.

Sequence of CYP2C9 (P11712 whole entry): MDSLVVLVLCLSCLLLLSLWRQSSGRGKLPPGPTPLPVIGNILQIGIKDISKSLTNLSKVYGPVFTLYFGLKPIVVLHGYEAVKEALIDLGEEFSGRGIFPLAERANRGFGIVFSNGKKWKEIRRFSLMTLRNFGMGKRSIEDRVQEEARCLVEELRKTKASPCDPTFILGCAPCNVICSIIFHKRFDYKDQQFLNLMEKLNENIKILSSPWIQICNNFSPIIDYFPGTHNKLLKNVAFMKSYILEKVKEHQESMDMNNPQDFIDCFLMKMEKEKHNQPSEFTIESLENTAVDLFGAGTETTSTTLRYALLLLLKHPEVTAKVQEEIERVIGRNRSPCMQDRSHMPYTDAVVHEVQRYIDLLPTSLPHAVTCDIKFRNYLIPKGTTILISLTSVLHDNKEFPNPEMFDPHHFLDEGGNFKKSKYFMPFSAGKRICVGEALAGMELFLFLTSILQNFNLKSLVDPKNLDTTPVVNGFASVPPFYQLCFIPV

As to `CN(C)C(=O)Oc1cc2oc(=O)c(Cc3cccc(NS(=O)(=O)CC(F)(F)F)c3F)c(CN3CCNCC3)c2cc1Cl` [Compound 247, 6-chloro-3-(2-fluoro-3-((2,2,2-trifluoroethyl)sulfonamido)benzyl)-2-oxo-4-(piperazin-1-ylmethyl)-2H-chromen-7-yl dimethylcarbamate], the Papp – broadly, the rate of passage across a membrane or cell layer, normalised by area and donor concentration – at 4 h, 50 μM in data set [1] worked out at 7 ×10⁻⁶ cm/s. Moreover, the activity at 0.01 µM in data set [2] is 105%.

In data set [1], `CNS(=O)(=O)Nc1cccc(Cc2c(CN(C)CC(F)F)c3ccc(OC(=O)N(C)C)cc3oc2=O)c1F` [Compound 242] had a Papp at 4 h, 50 μM of 72 ×10⁻⁶ cm/s. In addition, the activity at 0.01 µM in data set [2] was 69.7%. The “A549-pMEK 100 nM, 2 h” value in data set [3] amounted to 33.2.

The compound `CCS(=O)(=O)Nc1cccc(Cc2c(CN(C)CCF)c3ccc(OC(=O)N(C)C)cc3oc2=O)c1F` [Compound 241] returned a Papp at 4 h, 50 μM in data set [1] of 69 ×10⁻⁶ cm/s. In data set [2], the activity at 0.01 µM is 96.6%.

In turn, `CNS(=O)(=O)Nc1cccc(Cc2c(CN(C)C)c3c(C)cc(OC(=O)N(C)C)cc3oc2=O)c1F` [Compound 253, 4-((dimethylamino)methyl)-3-(2-fluoro-3-((N-methylsulfamoyl)amino)benzyl)-5-methyl-2-oxo-2H-chromen-7-yl dimethylcarbamate] had a Papp at 4 h, 50 μM in data set [1] of 48 ×10⁻⁶ cm/s.

In data set [1], `CCN(C)Cc1c(Cc2cccc(NS(=O)(=O)CC(F)(F)F)c2F)c(=O)oc2cc(OC(=O)N(C)C)c(F)cc12` [Compound 237] showed a Papp at 4 h, 50 μM of 50 ×10⁻⁶ cm/s. Moreover, the activity at 0.01 µM in data set [2] was 114%.

Regarding `CNS(=O)(=O)Nc1cccc(Cc2c(CN(C)C)c3cc(Cl)c(OC(=O)N(C)C)cc3oc2=O)c1F` [Compound 24], the solubility (kinetic) (as a rule, the concentration staying in solution when a stock, usually in DMSO, is diluted into the medium) at 4 h in data set [4] is 57 µM (≈ 30.8 µg/mL). Further, in data set [2], the “A549-pERK (10 nM, 2 h)” value is given as 42.4. For the same compound, the “A549-CRAF BP 100 nM, 2 h” value in data set [3] (pMEK to total MEK normalized to DMSO control) is 55.9 (mean, n = 2). Besides, in data set [5], the “AUC(0-t)” value turned out to be 850.1 ng·h/mL; the Cmax (usually the highest concentration seen after dosing) was determined as 422.7 ng/mL; the Tmax (in general, the time from dosing to the highest level) turned out to be 60 min.

As to `CCN(C)Cc1c(Cc2cccc(NS(=O)(=O)CC)c2F)c(=O)oc2cc(OC(=O)N(C)C)c(Cl)cc12` [Compound 166], the solubility (kinetic) at 4 h in data set [4] is 80 µM (≈ 44.3 µg/mL). Also, the “A549-pERK (10 nM, 2 h)” value in data set [2] is recorded as 60.9. In addition, in data set [5], the “AUC(0-t)” value amounted to 11.8 ng·h/mL, the “Cmax” value is 9.1 ng/mL and the “Tmax” value stood at 120 min.

As to `CNS(=O)(=O)Nc1cccc(Cc2c(CN(C)C)c3ccc(OC(=O)N(C)C)cc3oc2=O)c1Br` [Compound 248], the kinetic solubility at 4 h in data set [4] (setting [7]) was over 80 µM. The compound also showed a Papp at 4 h, 50 μM in data set [1] of 60 ×10⁻⁶ cm/s. The activity at 0.01 µM in data set [2] was determined as 80.9%. Moreover, the “pERK:tERK (10 nM 2 h A549)” value in data set [2] (Phospho-ERK Screen in A549 (KRAS G12S), head 10 nM 2 h, title 10 μM for 2 hours) is on record as 81. Also, in data set [5] (female, mouse), the AUC(0-inf) – broadly, the area under the concentration-time curve extrapolated to infinity – was 28.3 ng·h/mL and the half-life (as a rule, the time in which the quantity being followed falls by half) was 312 min. Moreover, in data set [5] (setting [8]), the AUC(0-t) was 19.5 ng·h/mL. Also, the Cmax in data set [5] (female, mouse, read-out: Cmax) was 8.3 ng/mL. Besides, the Tmax in data set [5] (female, mouse, read-out: Tmax) was 30 min.

Regarding `CNS(=O)(=O)Nc1cccc(Cc2c(CN(C)C)c3c(OC)cc(OC(=O)N(C)C)cc3oc2=O)c1F` [Compound 252, 4-((dimethylamino)methyl)-3-(2-fluoro-3-((N-methylsulfamoyl)amino)benzyl)-5-methoxy-2-oxo-2H-chromen-7-yl dimethylcarbamate], the Papp at 4 h, 50 μM in data set [1] was found to be 15 ×10⁻⁶ cm/s.

As to `CCS(=O)(=O)Nc1cccc(Cc2c(CN3CCNCC3)c3ccc(OC(=O)N(C)C)cc3oc2=O)c1Cl` [Compound 258, 3-(2-chloro-3-(ethylsulfonamido)benzyl)-2-oxo-4-(piperazin-1-ylmethyl)-2H-chromen-7-yl dimethylcarbamate], the Papp at 4 h, 50 μM in data set [1] is 1 ×10⁻⁶ cm/s.

In turn, `CNS(=O)(=O)Nc1cccc(Cc2c(CN(C)C)c3c(F)cc(OC(=O)N(C)C)cc3oc2=O)c1F` [Compound 244, 4-((dimethylamino)methyl)-5-fluoro-3-(2-fluoro-3-((N-methylsulfamoyl)amino)benzyl)-2-oxo-2H-chromen-7-yl dimethylcarbamate] had a Papp at 4 h, 50 μM in data set [1] of 8 ×10⁻⁶ cm/s. Further, the activity at 0.01 µM in data set [2] amounted to 44.7%. Besides, the “A549-pMEK 100 nM, 2 h” value in data set [3] stood at 26.1.

Take `Nc1ccc(S(=O)(=O)Nc2ccnn2-c2ccccc2)cc1` [Sulfaphenazole, reference compound]: the “2C9* (Diclofenac)” value in data set [6] (10 μM, human liver microsomes, percent inhibition) was 101.2. The inhibition (as a rule, the change of the read-out against control, counted positive when it falls) at 30 min, 10 µM in data set [6] (human, microsomes, pH 7.4) was 95.6%.

As for `CNS(=O)(=O)Nc1cccc(Cc2c(CN(C)CCF)c3ccc(OC(=O)N(C)C)cc3oc2=O)c1F` [Compound 240], the solubility (kinetic) at 4 h in data set [4] (setting [7]) stood at 67 µM (≈ 36.1 µg/mL). For the same compound, in data set [1], the Papp at 4 h, 50 μM worked out at 62 ×10⁻⁶ cm/s. Moreover, the activity at 0.01 µM in data set [2] amounted to 66%. The “A549-pMEK 100 nM, 2 h” value in data set [3] is given as 34.2. The AUC(0-t) in data set [5] (setting [8]) is 290 ng·h/mL. In data set [5] (female, mouse, read-out: Cmax), the Cmax was 865 ng/mL. Moreover, in data set [5] (female, mouse, read-out: Tmax), the Tmax was 4.98 min.

In the case of `CCS(=O)(=O)Nc1cccc(Cc2c(CN(C)CC(F)F)c3ccc(OC(=O)N(C)C)cc3oc2=O)c1F` [Compound 243], in data set [1], the Papp at 4 h, 50 μM worked out at 48 ×10⁻⁶ cm/s. The activity at 0.01 µM in data set [2] stood at 86.7%.

Regarding `CCS(=O)(=O)Nc1cccc(Cc2c(CN(C)C)c3ccc(OC(=O)N(C)C)cc3oc2=O)c1Cl` [Compound 249, 3-(2-chloro-3-(ethylsulfonamido)benzyl)-4-((dimethylamino)methyl)-2-oxo-2H-chromen-7-yl dimethylcarbamate], the Papp at 4 h, 50 μM in data set [1] was 64 ×10⁻⁶ cm/s.

Take `CN(C)Cc1c(Cc2cccc(NS(=O)(=O)CC(F)(F)F)c2F)c(=O)oc2cc(OC(=O)N(C)C)c(F)cc12` [Compound 236]: the Papp at 4 h, 50 μM in data set [1] was 52 ×10⁻⁶ cm/s. The activity at 0.01 µM in data set [2] is 94.1%.

Consider `CN(C)C(=O)Oc1cc2oc(=O)c(Cc3cccc(NS(=O)(=O)CC(F)(F)F)c3F)c(CN3CCNCC3)c2cc1F` [Compound 239], for which, in data set [1], the Papp at 4 h, 50 μM was 0.8 ×10⁻⁶ cm/s. The activity at 0.01 µM in data set [2] is 96.1%.
